Holding throughout (assay): relative viability (nuclei count vs DMSO), 5 days (fraction); higher = more cells survive
Compound in assay [1]: CCC1=CN=CN=C1N2CCN(CC2)CC3=NC4=C(N3)C=C(C=C4)C(F)(F)F + Cc1nc(NC(=O)N2CCC[C@H]2C(N)=O)sc1-c1ccnc(C(C)(C)C(F)(F)F)c1 [Alpelisib] (partner 2 µM)
Summed up:
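Lung cancer cell lines were seeded in 1536-well plates and dosed by pin tool the next day, with either a single drug or a fixed anchor-drug dose combined with five library-drug doses (not always all listed) spaced in √10 steps. Five days later, one step fixed the cells and stained their nuclei (final 0.05% Triton X-100, 1% formaldehyde, 1 ug/ml Hoechst), and nuclei were counted on 4× images. Relative viability is the nuclei count in treated wells divided by the count in vehicle wells, and each value is the median of duplicate plates.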

Compound in assay [2]: CCC1=CN=CN=C1N2CCN(CC2)CC3=NC4=C(N3)C=C(C=C4)C(F)(F)F
In a few lines: (§1)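 Viability is treated-well nuclei as a fraction of vehicle-well nuclei, reported as the median across plates. Before counting, lung cancer cell lines were kept overnight at 37 °C in 1536-well plates, pinned with five √10-spaced library-drug doses on vehicle-anchored plates, and left 5 days without medium change, then fixed, permeabilised and Hoechst-stained in one step, imaged at 4× and counted by MetaXpress. A plate passed only if control CV was below 25% and at least one doubling occurred.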

Compound in a further assay: N=C1NC(=O)/C(=C/c2ccc(O)cc2)S1 [Mirin]
In a few lines:
as §1

Compound in assay [3]: CCn1c(-c2nonc2N)nc2cnc(Oc3cccc(NC(=O)c4ccc(OCCN5CCOCC5)cc4)c3)cc21
Summed up:
as §1

In the case of UMC-11, the relative viability was 0.973 in assay [1] (first compound 0.04 µM); 1.07 in assay [1] (first compound 0.1265 µM); 0.959 in assay [1] (first compound 0.4 µM); 0.906 in assay [1] (first compound 1.265 µM); 0.871 in assay [1] (first compound 4 µM); 0.925 in assay [2] (0.04 µM). The relative viability in assay [2] (0.1265 µM) is 0.948; in assay [2] (0.4 µM), 0.933; in assay [2] (1.265 µM), 0.838; in assay [2] (4 µM), 0.888; with Mirin (0.25 µM) it was 1.01; in the assay with Mirin (0.7906 µM), 0.657. Further, the relative viability in the assay with Mirin (2.5 µM) came out at 1.02; in the assay with Mirin (7.906 µM) it was 0.803; with Mirin (25 µM), 0.608; in assay [3] (0.04 µM) it was 0.965; in assay [3] (0.1265 µM) it was 0.85; in assay [3] (0.4 µM), 0.481. For the same cell line, the relative viability in assay [3] (1.265 µM) stood at 0.275; in assay [3] (4 µM) it was 0.236.
